According to the supplement of paper PMC10307832:

Key:
Assay in all cases: relative viability (nuclei count vs DMSO), 5 days (fraction); higher = more cells survive
[1] = test system: NCI-H647
Summary of the method: (§1)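 Lung cancer cell lines in 1536-well plates got either a single drug or a fixed anchor-drug dose together with five library-drug doses (not always all listed) in √10 steps, by pin tool, on the day after seeding. Nuclei were counted after 5 days, and relative viability is the treated-to-vehicle ratio of nuclei counts. Values are medians of duplicate plates.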

[2] = test system: NCI-H522
Summary of the method: as §1

[3] = test system: SK-MES-1
Summary of the method: as §1

[4] = test system: HARA
Summary of the method: as §1

[5] = test system: HCC-827
Summary of the method: as §1

[6] = test system: HCC-366
Summary of the method: as §1

[7] = test system: SK-LU-1
Summary of the method: as §1

[8] = test system: EKVX
Summary of the method: as §1

[9] = test system: NCI-H1734
Summary of the method: as §1

[10] = test system: NCI-H1792
Summary of the method: as §1

[11] = test system: NCI-H2009
Summary of the method: as §1

[12] = test system: NCI-H1993
Summary of the method: as §1

[13] = test system: BEN
Summary of the method: as §1

[14] = test system: NCI-H2087
Summary of the method: as §1

[15] = test system: NCI-H1355
Summary of the method: as §1

[16] = test system: LOU-NH91
Summary of the method: as §1

[17] = test system: NCI-H1437
Summary of the method: as §1

[18] = test system: NCI-H2342
Summary of the method: as §1

[19] = test system: NCI-H661
Summary of the method: as §1

[20] = test system: NCI-H2170
Summary of the method: as §1

[21] = test system: NCI-H1395
Summary of the method: as §1

[22] = test system: NCI-H2405
Summary of the method: as §1

Compound: CC(=O)O[C@@]12CO[C@@H]1C[C@H](O)[C@@]1(C)C(=O)[C@H](O)C3=C(C)[C@@H](OC(=O)[C@H](O)[C@@H](NC(=O)OC(C)(C)C)c4ccccc4)C[C@@](O)([C@@H](OC(=O)c4ccccc4)[C@H]21)C3(C)C [Docetaxel] + CC(=O)c1c(C)c2cnc(Nc3ccc(N4CCNCC4)cn3)nc2n(C2CCCC2)c1=O [Palbociclib] (partner 0.5 µM)
- relative viability ([1]; first compound 0.0002 µM): 0.3
- relative viability ([1]; first compound 0.000632 µM): 0.387
- relative viability ([1]; first compound 0.002 µM): 0.11
- relative viability ([1]; first compound 0.006325 µM): 0.0808
- relative viability ([1]; first compound 0.02 µM): 0.062
- relative viability ([2]; first compound 0.0002 µM): 1.11
- relative viability ([2]; first compound 0.000632 µM): 0.795
- relative viability ([2]; first compound 0.002 µM): 0.758
- relative viability ([2]; first compound 0.006325 µM): 0.565
- relative viability ([2]; first compound 0.02 µM): 0.311
- relative viability ([3]; first compound 0.0002 µM): 0.401
- relative viability ([3]; first compound 0.000632 µM): 0.444
- relative viability ([3]; first compound 0.002 µM): 0.382
- relative viability ([3]; first compound 0.006325 µM): 0.303
- relative viability ([3]; first compound 0.02 µM): 0.176
- relative viability ([4]; first compound 0.0002 µM): 0.222
- relative viability ([4]; first compound 0.000632 µM): 0.189
- relative viability ([4]; first compound 0.002 µM): 0.168
- relative viability ([4]; first compound 0.006325 µM): 0.128
- relative viability ([4]; first compound 0.02 µM): 0.0982
- relative viability ([5]; first compound 0.0002 µM): 0.508
- relative viability ([5]; first compound 0.000632 µM): 0.446
- relative viability ([5]; first compound 0.002 µM): 0.375
- relative viability ([5]; first compound 0.006325 µM): 0.213
- relative viability ([5]; first compound 0.02 µM): 0.197
- relative viability ([6]; first compound 0.0002 µM): 0.327
- relative viability ([6]; first compound 0.000632 µM): 0.0952
- relative viability ([6]; first compound 0.002 µM): 0.066
- relative viability ([6]; first compound 0.006325 µM): 0.0347
- relative viability ([6]; first compound 0.02 µM): 0.0219
- relative viability ([7]; first compound 0.0002 µM): 0.358
- relative viability ([7]; first compound 0.000632 µM): 0.315
- relative viability ([7]; first compound 0.002 µM): 0.409
- relative viability ([7]; first compound 0.006325 µM): 0.265
- relative viability ([7]; first compound 0.02 µM): 0.19
- relative viability ([8]; first compound 0.0002 µM): 0.337
- relative viability ([8]; first compound 0.000632 µM): 0.36
- relative viability ([8]; first compound 0.002 µM): 0.245
- relative viability ([8]; first compound 0.006325 µM): 0.242
- relative viability ([8]; first compound 0.02 µM): 0.149
- relative viability ([9]; first compound 0.0002 µM): 0.321
- relative viability ([9]; first compound 0.000632 µM): 0.336
- relative viability ([9]; first compound 0.002 µM): 0.281
- relative viability ([9]; first compound 0.006325 µM): 0.314
- relative viability ([9]; first compound 0.02 µM): 0.23
- relative viability ([10]; first compound 0.0002 µM): 0.651
- relative viability ([10]; first compound 0.000632 µM): 0.639
- relative viability ([10]; first compound 0.002 µM): 0.543
- relative viability ([10]; first compound 0.006325 µM): 0.367
- relative viability ([10]; first compound 0.02 µM): 0.213
- relative viability ([11]; first compound 0.0002 µM): 0.135
- relative viability ([11]; first compound 0.000632 µM): 0.234
- relative viability ([11]; first compound 0.002 µM): 0.192
- relative viability ([11]; first compound 0.006325 µM): 0.202
- relative viability ([11]; first compound 0.02 µM): 0.127
- relative viability ([12]; first compound 0.0002 µM): 0.799
- relative viability ([12]; first compound 0.000632 µM): 0.708
- relative viability ([12]; first compound 0.002 µM): 0.686
- relative viability ([12]; first compound 0.006325 µM): 0.538
- relative viability ([12]; first compound 0.02 µM): 0.307
- relative viability ([13]; first compound 0.0002 µM): 0.457
- relative viability ([13]; first compound 0.000632 µM): 0.478
- relative viability ([13]; first compound 0.002 µM): 0.39
- relative viability ([13]; first compound 0.006325 µM): 0.376
- relative viability ([13]; first compound 0.02 µM): 0.343
- relative viability ([14]; first compound 0.0002 µM): 0.218
- relative viability ([14]; first compound 0.000632 µM): 0.179
- relative viability ([14]; first compound 0.002 µM): 0.135
- relative viability ([14]; first compound 0.006325 µM): 0.144
- relative viability ([14]; first compound 0.02 µM): 0.102
- relative viability ([15]; first compound 0.0002 µM): 0.374
- relative viability ([15]; first compound 0.000632 µM): 0.402
- relative viability ([15]; first compound 0.002 µM): 0.29
- relative viability ([15]; first compound 0.02 µM): 0.176
- relative viability ([16]; first compound 0.0002 µM): 0.553
- relative viability ([16]; first compound 0.000632 µM): 0.534
- relative viability ([16]; first compound 0.002 µM): 0.491
- relative viability ([16]; first compound 0.006325 µM): 0.43
- relative viability ([16]; first compound 0.02 µM): 0.324
- relative viability ([17]; first compound 0.0002 µM): 0.261
- relative viability ([17]; first compound 0.000632 µM): 0.33
- relative viability ([17]; first compound 0.002 µM): 0.297
- relative viability ([17]; first compound 0.02 µM): 0.156
- relative viability ([18]; first compound 0.0002 µM): 0.683
- relative viability ([18]; first compound 0.000632 µM): 0.558
- relative viability ([18]; first compound 0.002 µM): 0.486
- relative viability ([18]; first compound 0.006325 µM): 0.388
- relative viability ([18]; first compound 0.02 µM): 0.394
- relative viability ([19]; first compound 0.0002 µM): 0.42
- relative viability ([19]; first compound 0.000632 µM): 0.448
- relative viability ([19]; first compound 0.002 µM): 0.472
- relative viability ([19]; first compound 0.006325 µM): 0.377
- relative viability ([19]; first compound 0.02 µM): 0.359
- relative viability ([20]; first compound 0.0002 µM): 0.409
- relative viability ([20]; first compound 0.000632 µM): 0.383
- relative viability ([20]; first compound 0.002 µM): 0.306
- relative viability ([20]; first compound 0.006325 µM): 0.188
- relative viability ([20]; first compound 0.02 µM): 0.171
- relative viability ([21]; first compound 0.0002 µM): 0.589
- relative viability ([21]; first compound 0.000632 µM): 0.638
- relative viability ([21]; first compound 0.002 µM): 0.5
- relative viability ([21]; first compound 0.006325 µM): 0.42
- relative viability ([21]; first compound 0.02 µM): 0.274
- relative viability ([22]; first compound 0.0002 µM): 0.525
- relative viability ([22]; first compound 0.000632 µM): 0.513
- relative viability ([22]; first compound 0.002 µM): 0.456
- relative viability ([22]; first compound 0.006325 µM): 0.401
- relative viability ([22]; first compound 0.02 µM): 0.29
